The source of these data is patent publication US12428394B2, “2,4-disubstituted pyrimidine derivative, preparation method therefor and use thereof” (CHENGDU ZENITAR BIOMEDICAL TECHNOLOGY CO., LTD., priority 2019, dated 2025).

For this test, the system named is MV4-11 cells (FLT3-ITD+/+). The test can be described thus: Inhibition of cell proliferation by MTT experiment, MV4-11. The format is cell-based, human. To be noted: Homo sapiens, MV4-11, 72 h, read-out: IC50 value on cell proliferation inhibition, MV4-11 FLT3-ITD+/+. An outline of the steps:
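MTT assay in MV4-11, MOLM-13 (FLT3-ITD) and SET-2 (JAK2 V617F) cells at 10,000–15,000 cells/well in IMDM with 10% FBS. Cells are exposed to compound for 72 h at 37 °C, then to MTT for 1–3 h. IC50 is fitted from inhibition rates across concentrations.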

Take `Cc1cnc(Nc2ccc(N3CCC(N(C)CCO)CC3)c(F)c2)nc1-c1cnn(C(C)C)c1` [CLJ-44, 5-methyl-N-(3-fluoro-4-(4-N-hydroxyethyl-4-N-methylaminopiperidine-1-yl)phenyl)-4-(1-isopropyl-1H-pyrazole-4-yl) pyrimidine-2-amine]: the IC50 lay in the range of 1 to 10 nM.
